A word on the AUC(0-t): it is the area under the concentration-time curve up to a stated or last time point. A lower AUC(0-t) goes with low exposure. The term Cmax denotes the maximum level reached in the sampled fluid or tissue. In general, clearance refers to the volume of plasma or blood freed of the substance per unit of time. A lower clearance goes with inefficient removal. What is called half-life is how long it takes for the measured level to halve. High values mean slow decline, low ones rapid decline.

Results on 1 molecule are retold here after article PMC7883289, “Synthesis of Paeonol-Ozagrel Conjugate: Structure Characterization and In Vivo Anti-Ischemic Stroke potential” (Frontiers in Pharmacology, 2021).

Series [1] can be described thus: Solubility of POC in solvents (described in words). In kind it is physicochemical.
Series [2] is described as follows: Pharmacokinetic study after intravenous injection, LC-MS/MS of plasma. In kind it is in vivo. The following applies: rat, rats, 4.5 mg/kg. Here is the method:
Six rats were given POC (4.5 mg/kg) by intravenous injection, then, an approximately 1.0 ml sample of blood was obtained from the fossa orbitalis vein of rats and placed into heparin–rinsed EP pipes according to a programmed schedule at 3, 5, 10, 20, 30, 45, 60, 120, and 240 min after dosing.
Plasma (80 μL) was mixed with glibenclamide (20 μL) as the internal standard, and then 900 μL of acetonitrile was used to precipitate the protein. All samples were vortex–mixed for 5 min, then centrifuged at 15,000 r/min for 10 min. Then, 800 μL of supernatant was measured, blowed dry by nitrogen, and reconstituted with 100 μL of acetonitrile.
The Thermo Fisher Scientific Hypersil GOLD column (2.1 mm × 100 mm, 1.9 μm) was used as the analytical column; it was maintained at 30°C with 1.0 mmol/L of ammonium acetate (A) and mathanol (B) as the mobile phase, using glibenclamide as the internal standard (IS). The gradient elution program was operated as follows: 0–1.5 min, 55% B–65% B; 1.5–2.5 min, 65% B–80% B; 2.5–3.0 min, 80% B–90% B; 3.0–4.0 min, 90% B; 4.0–4.5 min, 90% B–55% B; 4.5–6.0 min, 55% B. The sample injection volume was 5.0 μL, and the flow rate set at 0.2 ml/min.
Mass spectrometry was operated with multiple reaction monitoring (MRM) in a positive ionization mode. The ion pair of POC is m/z 377.1 and 163.0; the declustering voltage (DP) is 28 eV; and the collision energy (CE) is 30 eV. The ion pair of glibenclamide is m/z 494.1 and 169.0, and the DP is 65 eV, the CE is 50 eV.

The next series deals with SOD and MDA. The series is described as follows: Oxidative stress biomarker assay (SOD, MDA) in brain tissue of MCAO rats. In kind it is in vivo. The following applies: whole brain homogenate, POC 4.5 mg/kg iv compared with the paeonol and OS groups (3 mg/kg iv), n = 6. The procedure:
Male Sprague Dawley (SD) rats weighing among 220 g–230 g (Anhui Medicine University, Hefei, China; certificate number: SCXK20190,003) were housed under ad libitum access to food and water with a standardized light-dark cycle condition (25 ± 2°C, 12–hour light/dark cycle). All the experimental protocols were performed in accordance with the Institutional Animal Care and Use Committee of Anhui University of Chinese Medicine (Animal ethics number: AHUCM–rats–2019001). We used the minimal number of study animals (n = 6 rats in each group for different experiments). The rats were fastened upon the operating table in a supine position after being anesthetized with 2% pelltobarbitalum natricum (50 mg/kg). After disinfection of the skin within close proximity of the operative region, the right common carotid artery (CCA), external carotid artery (ECA) and internal carotid artery (ICA) were exposed with blunt dissection. The CCA was temporarily ligated and the ECA were permanently ligated ([Liu et al., 2016]). A nylon monofilament surgical thread was introduced into the ICA to block the MCA when the blunted distal end met resistance. After 2 h of occlusion, reperfusion was accomplished to restore blood supply to the MCA area by removing the filament ([Li et al., 2009]; [Zhai et al., 2017]). […] A microplate reader was used to measure the absorbance at 450 and 532 nm with a UV spectrophotometer. […]

Consider `COc1ccc(C(C)=O)c(OC(=O)C=Cc2ccc(Cn3ccnc3)cc2)c1` [POC, paeonol-ozagrel conjugate], for which the “solubility in ethyl acetate” value in series [1] (ethyl acetate) is given as “slightly soluble”. Moreover, the “solubility in methanol and ethanol” value in series [1] (methanol and ethanol) is reported as “easily soluble”. Also, the solubility in water result in series [1] (water) was “almost insoluble or insoluble”. In series [2], this molecule showed an AUC(0-t) of 264 ng·h/mL, a Cmax of 465 ± 269 ng/mL, a clearance of 277 ± 62.3 mL/min/kg and a half-life of 53.5 ± 19.6 min. In series [2] (read-out: MRT0-t (converted)), the MRT last was 51.9 min. Further, in the series with SOD and MDA, the “MDA levels in brain tissue” value is given as “lowest MDA levels” and the “SOD levels in brain tissue” value is “highest SOD levels”.
